The record followed here is patent US8309718B2, “4-pyrazolyl-N-arylpyrimidin-2-amines and 4-pyrazolyl-N-heteroarylpyrimidin-2-amines as janus kinase inhibitors” (Incyte Corporation, priority 2007, dated 2012).

The assay deals with T1, human JAK2 (Homo sapiens, UniProt O60674).
T1 construct: JAK2 (a.a. 828-1132); His tag (N); made in house; host or cells: insect cells (baculovirus)
T1 sequence (O60674 828-1132): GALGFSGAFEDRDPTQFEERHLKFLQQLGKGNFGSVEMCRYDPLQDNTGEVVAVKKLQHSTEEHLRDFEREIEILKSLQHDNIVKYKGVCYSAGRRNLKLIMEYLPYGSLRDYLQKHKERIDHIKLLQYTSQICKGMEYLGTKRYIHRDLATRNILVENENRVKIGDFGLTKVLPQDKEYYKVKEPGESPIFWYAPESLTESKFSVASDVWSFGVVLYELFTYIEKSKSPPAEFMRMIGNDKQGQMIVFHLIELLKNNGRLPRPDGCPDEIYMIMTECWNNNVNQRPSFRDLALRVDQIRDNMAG
The assay is described as follows: In vitro JAK kinase assay (HTRF, phosphorylation of biotinylated peptide). It counts as biochemical. As to conditions: catalytic domain a.a. 828-1132, 30 μM ATP, 500 nM peptide, room temperature 1 hr; read-out: JAK-2 IC50. Put shortly:
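His-tagged human JAK2 catalytic domain (a.a. 828-1132), baculovirus/insect-cell expressed; phosphorylation of 500 nM biotinylated peptide at 30 μM ATP in 50 mM Tris pH 7.8, 100 mM NaCl, 5 mM DTT, 0.01% BSA. 1 h at room temperature, EDTA stop, HTRF read (Eu-Py20/SA-APC); IC50.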
For orientation: Time-resolved FRET reads energy transfer from a long-lived donor to a nearby acceptor.
By IC50 is commonly meant the concentration that gives 50% inhibition. On to `Cc1cc(OC2CCC(CC#N)(n3cc(-c4ccnc(Nc5cccc(-c6cnco6)c5)n4)cn3)CC2)no1` (single isomer, unassigned) [Example 247, 2-(4-(5-methylisoxazol-3-yloxy)-1-(4-(2-(3-(oxazol-5-yl)phenylamino)pyrimidin-4-yl)-1H-pyrazol-1-yl)cyclohexyl)acetonitrile], for which the IC50 is under 100 nM.

`N#CCC1(n2cc(-c3ccnc(Nc4ccc(N5CCOCC5)cc4)n3)cn2)CC(C#N)C1` (single isomer, unassigned) [Example 248, 3-(cyanomethyl)-3-(4-(2-(4-morpholinophenylamino)pyrimidin-4-yl)-1H-pyrazol-1-yl)cyclobutanecarbonitrile]: the IC50 is under 100 nM.

On to `N#CCC1(n2cc(-c3ccnc(Nc4ccc(C(=O)N5CCOCC5)cc4)n3)cn2)CC(C#N)C1` (single isomer, unassigned) [Example 287, 3-(cyanomethyl)-3-(4-(2-(4-(morpholine-4-carbonyl)phenylamino)pyrimidin-4-yl)-1H-pyrazol-1-yl)cyclobutanecarbonitrile], for which the IC50 was under 100 nM.

For `N#CCC1(n2cc(-c3ccnc(Nc4ccc(C(=O)N5CCCC5)cc4)n3)cn2)CC(C#N)C1` (single isomer, unassigned) [Example 288, 3-(cyanomethyl)-3-(4-(2-(4-(pyrrolidine-1-carbonyl)phenylamino)pyrimidin-4-yl)-1H-pyrazol-1-yl)cyclobutanecarbonitrile], the IC50 is under 100 nM.

Turning to `N#CCC1(n2cc(-c3ccnc(Nc4ccc(C(=O)NC5CCOCC5)cc4)n3)cn2)CC(C#N)C1` (single isomer, unassigned) [Example 289, 4-(4-(1-(3-cyano-1-(cyanomethyl)cyclobutyl)-1H-pyrazol-4-yl)pyrimidin-2-ylamino)-N-(tetrahydro-2H-pyran-4-yl)benzamide], the IC50 is under 100 nM.

In the case of `N#CCC1(n2cc(-c3ccnc(Nc4ccc(C(=O)N5CC[C@@H](O)C5)cc4)n3)cn2)CC(C#N)C1` (single isomer, unassigned) [Example 290], the IC50 was under 100 nM.

For `Cc1cc(CNC(=O)c2ccc(Nc3nccc(-c4cnn(C5(CC#N)CC(C#N)C5)c4)n3)cc2)no1` (single isomer, unassigned) [Example 291, 4-(4-(1-(3-cyano-1-(cyanomethyl)cyclobutyl)-1H-pyrazol-4-yl)pyrimidin-2-ylamino)-N-((5-methylisoxazol-3-yl)methyl)benzamide], the IC50 was under 100 nM.

With `N#CCC1(n2cc(-c3ccnc(Nc4ccc(C(=O)N5CCC5)cc4)n3)cn2)CC(C#N)C1` (single isomer, unassigned) [Example 292, 3-(4-(2-(4-(azetidine-1-carbonyl)phenylamino)pyrimidin-4-yl)-1H-pyrazol-1-yl)-3-(cyanomethyl)cyclobutanecarbonitrile], the IC50 is under 100 nM.

Take `CN1CCN(C(=O)c2ccc(Nc3nccc(-c4cnn(C5(CC#N)CC(C#N)C5)c4)n3)cc2)CC1` (single isomer, unassigned) [Example 293, 3-(cyanomethyl)-3-(4-(2-(4-(4-methylpiperazine-1-carbonyl)phenylamino)pyrimidin-4-yl)-1H-pyrazol-1-yl)cyclobutanecarbonitrile]: the IC50 is under 100 nM.

For the molecule `N#CCC1(n2cc(-c3ccnc(Nc4ccc(C(=O)N5CC[C@H](F)C5)cc4)n3)cn2)CC(C#N)C1` (single isomer, unassigned) [Example 294], the IC50 was under 100 nM.

Consider `COC1CCN(C(=O)c2ccc(Nc3nccc(-c4cnn(C5(CC#N)CC(C#N)C5)c4)n3)cc2)CC1` (single isomer, unassigned) [Example 295, 3-(cyanomethyl)-3-(4-(2-(4-(4-methoxypiperidine-1-carbonyl)phenylamino)pyrimidin-4-yl)-1H-pyrazol-1-yl)cyclobutanecarbonitrile], for which the IC50 is under 100 nM.

Take `CO[C@H]1CCN(C(=O)c2ccc(Nc3nccc(-c4cnn(C5(CC#N)CC(C#N)C5)c4)n3)cc2)C1` (single isomer, unassigned) [Example 296]: the IC50 was under 100 nM.

For the molecule `CC(=O)N1CCN(C(=O)c2ccc(Nc3nccc(-c4cnn(C5(CC#N)CC(C#N)C5)c4)n3)cc2)CC1` (single isomer, unassigned) [Example 298, 3-(4-(2-(4-(4-acetylpiperazine-1-carbonyl)phenylamino)pyrimidin-4-yl)-1H-pyrazol-1-yl)-3-(cyanomethyl)cyclobutanecarbonitrile], the IC50 is under 100 nM.

Regarding `N#CCC1(n2cc(-c3ccnc(Nc4ccc(C(=O)N5CCC(O)CC5)cc4)n3)cn2)CC(C#N)C1` (single isomer, unassigned) [Example 301, 3-(cyanomethyl)-3-(4-(2-(4-(4-hydroxypiperidine-1-carbonyl)phenylamino)pyrimidin-4-yl)-1H-pyrazol-1-yl)cyclobutanecarbonitrile], the IC50 was under 100 nM.

For the molecule `N#CCC1(n2cc(-c3ccnc(Nc4ccc(OCCN5CCCC5)cc4)n3)cn2)CC(C#N)C1` (single isomer, unassigned) [Example 307, 3-(cyanomethyl)-3-[4-(2-{[4-(2-pyrrolidin-1-ylethoxy)phenyl]amino}pyrimidin-4-yl)-1H-pyrazol-1-yl]cyclobutanecarbonitrile], the IC50 is under 100 nM.

On to `N#CCC1(n2cc(-c3ccnc(Nc4ccc(N5CCCCC5=O)cc4)n3)cn2)CC(C#N)C1` (single isomer, unassigned) [Example 336, 3-(cyanomethyl)-3-[4-(2-{[4-(2-oxopiperidin-1-yl)phenyl]amino}pyrimidin-4-yl)-1H-pyrazol-1-yl]cyclobutanecarbonitrile], for which the IC50 was under 100 nM.

As to `N#CCC1(n2cc(-c3ccnc(Nc4ccc(N5CCCOC5=O)cc4)n3)cn2)CC(C#N)C1` (single isomer, unassigned) [Example 337, 3-(cyanomethyl)-3-[4-(2-{[4-(2-oxo-1,3-oxazinan-3-yl)phenyl]amino}pyrimidin-4-yl)-1H-pyrazol-1-yl]cyclobutanecarbonitrile], the IC50 is under 100 nM.

With `N#CCC1(n2cc(-c3ccnc(Nc4ccc(N5CCOCC5=O)cc4)n3)cn2)CC(C#N)C1` (single isomer, unassigned) [Example 338, 3-(cyanomethyl)-3-[4-(2-{[4-(3-oxomorpholin-4-yl)phenyl]amino}pyrimidin-4-yl)-1H-pyrazol-1-yl]cyclobutanecarbonitrile], the IC50 was under 100 nM.

For the molecule `N#CCC1(n2cc(-c3ccnc(Nc4ccc(N5CCOC5=O)cc4)n3)cn2)CC(C#N)C1` (single isomer, unassigned) [Example 339, 3-(cyanomethyl)-3-[4-(2-{[4-(2-oxo-1,3-oxazolidin-3-yl)phenyl]amino}pyrimidin-4-yl)-1H-pyrazol-1-yl]cyclobutanecarbonitrile], the IC50 is under 100 nM.

For the molecule `N#CCC1(n2cc(-c3ccnc(Nc4ccc(N5CCCC5=O)cc4)n3)cn2)CC(C#N)C1` (single isomer, unassigned) [Example 340, 3-(cyanomethyl)-3-[4-(2-{[4-(2-oxopyrrolidin-1-yl)phenyl]amino}pyrimidin-4-yl)-1H-pyrazol-1-yl]cyclobutanecarbonitrile], the IC50 was under 100 nM.

Turning to `N#CCC1(n2cc(-c3ccnc(Nc4ccc(-n5cccn5)cc4)n3)cn2)CC(C#N)C1` (single isomer, unassigned) [Example 341, 3-(cyanomethyl)-3-[4-(2-{[4-(1H-pyrazol-1-yl)phenyl]amino}pyrimidin-4-yl)-1H-pyrazol-1-yl]cyclobutanecarbonitrile], the IC50 was under 100 nM.

For `N#CCC1(n2cc(-c3ccnc(Nc4ccc(-c5cnco5)cc4)n3)cn2)CC(C#N)C1` (single isomer, unassigned) [Example 342, 3-(cyanomethyl)-3-[4-(2-{[4-(1,3-oxazol-5-yl)phenyl]amino}pyrimidin-4-yl)-1H-pyrazol-1-yl]cyclobutanecarbonitrile], the IC50 was under 100 nM.

Turning to `N#CCC1(n2cc(-c3ccnc(Nc4cccc(-c5cnco5)c4)n3)cn2)CC(C#N)C1` (single isomer, unassigned) [Example 343, 3-(cyanomethyl)-3-[4-(2-{[3-(1,3-oxazol-5-yl)phenyl]amino}pyrimidin-4-yl)-1H-pyrazol-1-yl]cyclobutanecarbonitrile], the IC50 is under 100 nM.

For the molecule `N#CCC1(n2cc(-c3ccnc(Nc4ccc(S(=O)(=O)N5CCOCC5)cc4)n3)cn2)CC(C#N)C1` (single isomer, unassigned) [Example 344, 3-(cyanomethyl)-3-[4-(2-{[4-(morpholin-4-ylsulfonyl)phenyl]amino}pyrimidin-4-yl)-1H-pyrazol-1-yl]cyclobutanecarbonitrile], the IC50 was under 100 nM.

As to `N#CCC1(n2cc(-c3ccnc(Nc4cccc(N5CCCC5=O)c4)n3)cn2)CC(C#N)C1` (single isomer, unassigned) [Example 348, 3-(cyanomethyl)-3-[4-(2-{[3-(2-oxopyrrolidin-1-yl)phenyl]amino}pyrimidin-4-yl)-1H-pyrazol-1-yl]cyclobutanecarbonitrile], the IC50 was under 100 nM.

As for `N#CCC1(n2cc(-c3ccnc(Nc4cccc(-c5cnco5)c4)n3)cn2)CN(S(=O)(=O)C2CC2)C1` [Example 18, 2-(1-(cyclopropylsulfonyl)-3-(4-(2-(3-(oxazol-5-yl)phenylamino)pyrimidin-4-yl)-1H-pyrazol-1-yl)azetidin-3-yl)acetonitrile], the IC50 was under 100 nM.

`CC(=O)Nc1ccc(Nc2nccc(-c3cnn(C4(CC#N)CN(S(=O)(=O)C5CC5)C4)c3)n2)cc1` [Example 19, N-(4-(4-(1-(3-(cyanomethyl)-1-(cyclopropylsulfonyl)azetidin-3-yl)-1H-pyrazol-4-yl)pyrimidin-2-ylamino)phenyl)acetamide]: the IC50 is under 100 nM.

Take `Cc1nccc(-c2cccc(Nc3nccc(-c4cnn(C5(CC#N)CN(S(=O)(=O)C6CC6)C5)c4)n3)c2)n1` [Example 20, 2-(1-(cyclopropylsulfonyl)-3-(4-(2-(3-(2-methylpyrimidin-4-yl)phenylamino)pyrimidin-4-yl)-1H-pyrazol-1-yl)azetidin-3-yl)acetonitrile]: the IC50 is under 100 nM.
